Data as given in patent US20260232767A1, “INTERLEUKIN-23 RECEPTOR ANTAGONIST PEPTIDES FOR USE IN THE TREATMENT OF PSORIASIS” (Janssen Pharmaceutica NV, priority 2023, published 2026).

Tested on: subjects with moderate-to-severe plaque psoriasis
Test: Lipid panel laboratory values
Format: in vivo, human
Details: Week 52

SMILES: CC(=O)NCCCC[C@@H]1NC(=O)[C@H](Cc2c[nH]c3c(C)cccc23)NC(=O)[C@H]([C@@H](C)O)NC(=O)[C@H](CC(N)=O)NC(=O)[C@@H](NC(C)=O)C(C)(C)SSC(C)(C)[C@@H](C(=O)N[C@@H](Cc2ccc(OCCN)cc2)C(=O)N[C@@H](Cc2ccc3ccccc3c2)C(=O)NC2(C(=O)N[C@@H](CCC(=O)O)C(=O)N[C@@H](CC(N)=O)C(=O)N[C@@H](Cc3cccnc3)C(=O)N(C)CC(N)=O)CCOCC2)NC1=O [IL-23 receptor antagonist peptide, Ac-[Pen]*-N-T-[W(7-Me)]-[Lys(Ac)]-[Pen]*-Phe[4-(2-aminoethoxy)]-[2-Nal]-[THP]-E-N-[3-Pal]-Sarc-NH2 (*[Pen]-[Pen]* formdisulfidebond)]
- HDL Cholesterol change from baseline, Mean (25 mg BID): 0.011 mmol/L
- HDL Cholesterol change from baseline, Median (25 mg BID): -0.010 mmol/L
- LDL Cholesterol change from baseline, Mean (25 mg BID): -0.155 mmol/L
- LDL Cholesterol change from baseline, Median (25 mg BID): -0.105 mmol/L
- Triglycerides change from baseline, Mean (25 mg BID): 0.144 mmol/L
- Triglycerides change from baseline, Median (25 mg BID): 0.040 mmol/L
- HDL Cholesterol change from baseline, Mean (25 mg QD): -0.034 mmol/L
- HDL Cholesterol change from baseline, Median (25 mg QD): -0.023 mmol/L
- LDL Cholesterol change from baseline, Mean (25 mg QD): 0.069 mmol/L
- LDL Cholesterol change from baseline, Median (25 mg QD): 0.132 mmol/L
- Triglycerides change from baseline, Mean (25 mg QD): 0.034 mmol/L
- Triglycerides change from baseline, Median (25 mg QD): 0.040 mmol/L
- HDL Cholesterol change from baseline, Mean (50 mg QD): -0.009 mmol/L
- HDL Cholesterol change from baseline, Median (50 mg QD): 0.014 mmol/L
- LDL Cholesterol change from baseline, Mean (50 mg QD): -0.146 mmol/L
- LDL Cholesterol change from baseline, Median (50 mg QD): -0.095 mmol/L
- Triglycerides change from baseline, Mean (50 mg QD): 0.156 mmol/L
- Triglycerides change from baseline, Median (50 mg QD): 0.067 mmol/L
- HDL Cholesterol change from baseline, Mean (100 mg BID): -0.027 mmol/L
- HDL Cholesterol change from baseline, Median (100 mg BID): -0.020 mmol/L
- LDL Cholesterol change from baseline, Mean (100 mg BID): -0.056 mmol/L
- LDL Cholesterol change from baseline, Median (100 mg BID): -0.110 mmol/L
- Triglycerides change from baseline, Mean (100 mg BID): 0.137 mmol/L
- Triglycerides change from baseline, Median (100 mg BID): 0.010 mmol/L
- HDL Cholesterol change from baseline, Mean (100 mg QD): -0.023 mmol/L
- HDL Cholesterol change from baseline, Median (100 mg QD): -0.027 mmol/L
- LDL Cholesterol change from baseline, Mean (100 mg QD): -0.147 mmol/L
- LDL Cholesterol change from baseline, Median (100 mg QD): -0.060 mmol/L
- Triglycerides change from baseline, Mean (100 mg QD): 0.024 mmol/L
- Triglycerides change from baseline, Median (100 mg QD): -0.005 mmol/L
- HDL Cholesterol change from baseline, Mean (Combined): -0.012 mmol/L
- HDL Cholesterol change from baseline, Median (Combined): -0.020 mmol/L
- LDL Cholesterol change from baseline, Mean (Combined): -0.098 mmol/L
- LDL Cholesterol change from baseline, Median (Combined): -0.105 mmol/L
- Triglycerides change from baseline, Mean (Combined): 0.118 mmol/L
- Triglycerides change from baseline, Median (Combined): 0.020 mmol/L
- HDL Cholesterol change from baseline, Mean (Placebo → 100 mg QD): 0.013 mmol/L
- HDL Cholesterol change from baseline, Median (Placebo → 100 mg QD): -0.035 mmol/L
- LDL Cholesterol change from baseline, Mean (Placebo → 100 mg QD): -0.138 mmol/L
- LDL Cholesterol change from baseline, Median (Placebo → 100 mg QD): -0.212 mmol/L
- Triglycerides change from baseline, Mean (Placebo → 100 mg QD): 0.207 mmol/L
- Triglycerides change from baseline, Median (Placebo → 100 mg QD): 0.035 mmol/L
